“Also recorded” adds a separate entry of the source.
Columns and labels:
[1] = Pharmacokinetics of BrEA after subcutaneous dose in rabbits; format: in vivo
Protocol: The nonaqueous BrEA formulation of example 1 was administered as a single subcutaneous dose to rabbits. […] The circulating half-life of the drug in the plasma was about twelve hours.
A pharmacokinetic analysis of ^14C BrEA was conducted in New Zealand White rabbits. Twenty μCi of ^14C 16α-bromo-3-beta-hydroxy-5α-[4-^14C]-androstan-17-one (50 mCi/mmole) plus 1 mg/kg unlabeled BrEA was administered to each of three New Zealand White rabbits as a subcutaneous injection in the scapular region using an injection volume of 1 mL/kg. The drug was formulated in 25% polyethylene glycol 300, 12.5% absolute ethanol, 5% benzyl benzoate, and qs with propylene glycol. Blood samples were taken at 0.5, 1, 2, 4, 8, 12, 24 hours for all three animals, and at 48 hours for two of the animals. Twenty-four and 48 hours after administration, one and two animals respectively, were sacrificed, and the following organs/tissues were collected: brain, heart, kidneys, liver, lungs, skeletal muscle, spleen, and injection site muscle and skin. In addition to the organs and tissues, urine and feces were collected as well as the cage wash.
The average percentages of the administered dose in whole blood was calculated by multiplying the concentration of drug in whole blood by the assumed volume of blood in the animals, 200 mL. The amount of drug in the blood reaches a maximum at around 8 hours, and a small amount was still evident at 48 hours.

[2] = Oral bioavailability of BrEA formulations in rats; format: in vivo
Protocol: In vivo experiments were conducted to determine the bioavailability of BrEA via oral administration using different formulations. BrEA was (1) solubilized in soya oil, vitamin E oil, a mixture of vitamin E and cremophore or (2) BrEA was micronized and combined with or without a surfactant. These formulations are described below. The formulations were administered orally to rats and BrEA levels were determined in the blood, liver, spleen, kidney, and the lymph nodes. In the studies using micronized BrEA, the brain was evaluated for drug uptake. Twenty-four hour urine and feces were collected when BrEA was solubilized in vitamin E and soya oils and vitamin E mixed with Cremophore. The data from these studies indicate that BrEA enters into the lymphatics but is eliminated rapidly from the other tissues. The amount of ^14C radioactivity recovered in the feces 24 hours after administration was 78 to 83%.
BrEA (5 mg in 1.0 mL of soya oil or vitamin E oil) supplemented with ^14C-labelled BrEA was administered intragastrically to rats. Solubilization of BrEA in the vitamin E or soya oil was facilitated with 50 μL ethanol. Animals (3/time point) were assayed at 1.5, 3, 5.5, and 24 hours after administration and the ^14C-radioactivity was measured in the blood, liver, spleen, kidney, lymph nodes and 24 hour feces and urine. […] The uptake is greater with soya oil than vitamin E oil in the blood, liver, and lymph nodes.
BrEA (5 mg in 1.0 mL of a vitamin E and cremophore) supplemented with ^14C-labelled BrEA was administered intragastrically to rats. Solubilization of BrEA in the vitamin E-cremophore mixture was facilitated by the adding 60 μL ethanol. Animals (4/time point) were sacrificed at 2, 3, 5.5, and 24 hours and ^14C-radioactivity was measured in the blood, liver, spleen, kidney, lymph nodes and 24 hour feces and urine. […] Judging from the values in plasma, liver and lymph nodes, it appears that drug uptake is slower compared with soy oil or vitamin E and its presence in the tissues is more persistent.
Rats, in groups of three males, were orally administered 1.0 mL of 0.9% NaCl containing 10 or 32 mg BrEA micronized with a surfactant, Synperonic PE/F 127 (2.5% wt/wt). Rats were examined at 1.5, 5 and 24 hours after administration. Blood, liver, spleen, kidney, lymph nodes, and brain were assayed for ^14C radioactivity. The levels of BrEA in the blood, in comparison to the experiments with BrEA in Vitamin E oil and soya, were higher, 0.3% at 1.5 hours, and increased after 5 hours to 0.8% and 0.9% of the 10 and 32 mg dose, respectively. Additionally, the values in the lymph nodes were similar to those measured at 1.5 hours and the levels were sustained at 5 hours (5.3 and 5.0%) and 24 hours (3.7 and 3.1%) for the 10 and 32 mg dose, respectively (refer to Table 6).
In a repeated dose experiment, rats were intragastrically administered 1.0 mL 0.9% NaCl containing 2 mg BrEA micronized with Synperonic PE/F 127 (2.5% wt/wt) every 6 to 16 hours. Rats (3/time point) were sacrificed at 40, 72, 84, 90 and 96 hours after the first administration. Blood, liver, spleen, kidney and lymph nodes were assayed for ^14C radioactivity.
Rats, in groups of three males, were orally administered 1.0 mL of 0.9% NaCl containing 2, 4 or 10 mg BrEA micronized without a surfactant. Rats were sacrificed at 1.5, 5 and 24 hours after administration and blood, liver, spleen, kidney, lymph nodes and brain were assayed for ^14C radioactivity. The concentration of BrEA micronized without a surfactant in the observed tissues was lower than BrEA plus a surfactant.

[3] = Animal 201, 24 hours, 1 mg/kg s.c.
[4] = Animal 301, 48 hours, 1 mg/kg s.c.
[5] = Animal 301, 48 hours, sample wt. 6 g
[6] = Animal 302, 48 hours, 1 mg/kg s.c.
[7] = micronized with surfactant, 10 mg dose, 5 hours
[8] = micronized with surfactant, 32 mg dose, 5 hours

C[C@]12CC[C@H](O)C[C@@H]1CC[C@@H]1[C@@H]2CC[C@]2(C)C(=O)[C@H](Br)C[C@@H]12 [BrEA, 16α-bromo-3β-hydroxy-5α-androstane-17-one]
Percentage of Drug in Organs: Brain [1, 3]: 0.005%
Percentage of Drug in Organs: Heart [1, 3]: 0.008%
Percentage of Drug in Organs: Kidneys [1, 3]: 0.155%
Percentage of Drug in Organs: Liver [1, 3]: 0.76%
Percentage of Drug in Organs: Lungs [1, 3]: 0.029%
Percentage of Drug in Organs: Spleen [1, 3]: 0.002%
Percentage of Drug in Organs: Skeletal muscle ([1]; Animal 201, 24 hours, sample wt. 3.8 g): 0.002%
Percentage of Drug in Organs: Skin ([1]; Animal 201, 24 hours, sample wt. 8 g): 0.008%
Percentage of Drug in Organs: Brain [1, 4]: 0.002%
Percentage of Drug in Organs: Heart [1, 4]: 0.003%
Percentage of Drug in Organs: Kidneys [1, 4]: 0.055%
Percentage of Drug in Organs: Liver [1, 4]: 0.145%
Percentage of Drug in Organs: Lungs [1, 4]: 0.019%
Percentage of Drug in Organs: Spleen [1, 4]: 0%
Percentage of Drug in Organs: Skeletal muscle [1, 5]: 0%
Percentage of Drug in Organs: Skin [1, 5]: 0.002%
Percentage of Drug in Organs: Brain [1, 6]: 0%
Percentage of Drug in Organs: Heart [1, 6]: 0.002%
Percentage of Drug in Organs: Kidneys [1, 6]: 0.050%
Percentage of Drug in Organs: Liver [1, 6]: 0.125%
Percentage of Drug in Organs: Lungs [1, 6]: 0.011%
Percentage of Drug in Organs: Spleen [1, 6]: 0%
Percentage of Drug in Organs: Skeletal muscle ([1]; Animal 302, 48 hours, sample wt. 5 g): 0%
Percentage of Drug in Organs: Skin ([1]; Animal 302, 48 hours, sample wt. 9 g): 0.004%
time of maximum amount of drug in whole blood ([1]; rabbits, 1 mg/kg s.c.): around 8 hours
drug in the liver ([1]; rabbits, 1 mg/kg s.c., 24 hours): approximately 0.8 % of the injected dose
drug in the liver ([1]; rabbits, 1 mg/kg s.c., 48 hours): ~0.12 % of the injected dose
drug in the liver, average ([1]; rabbits, 1 mg/kg s.c., average printed after the 48 hours value): 0.13%
accumulation in organs ([1]; rabbits, s.c. dose): did not accumulate to a significant extent in any major organ; also recorded: did not accumulate to a significant degree in any of the organs
route of excretion ([1]; rabbits, s.c. dose): primarily excreted in the urine
circulating half-life of the drug in the plasma ([1]; rabbits, single s.c. dose): about twelve
maximum concentration in the plasma ([1]; rabbits, single s.c. dose, at eight to twelve hours post administration): about 1.2 % of the injected dose
drug left the injection site ([1]; rabbits, single subcutaneous dose, formulation of example 1, within 24 hours): More than 90%
levels of BrEA in the blood ([2]; BrEA micronized with Synperonic PE/F 127, 1.5 hours): 0.3%
levels of BrEA in the blood [2, 7]: 0.8%
values in the lymph nodes [2, 7]: 5.3%
values in the lymph nodes ([2]; micronized with surfactant, 10 mg dose, 24 hours): 3.7%
levels of BrEA in the blood [2, 8]: 0.9%
values in the lymph nodes [2, 8]: 5.0%
values in the lymph nodes ([2]; micronized with surfactant, 32 mg dose, 24 hours): 3.1%

— patent US20070275936A1, “Formulations and Treatment Methods” (priority 1998, published 2007)
